Reference: US10543227B2, “Hair growth composition” (RIKEN, priority 2015, dated 2020)
Several values for one entry are separate records, joined by “and”; a condition that tells them apart may be missing. Equal entries are not always repeated. Where two headings read alike, the source gives them in different places.

Columns and labels:
[1] = system: hair-shaved back sites of C3H/HeN mice; assay: Telogen phase model, Test 1: hair growth at hair-shaved back sites; format: in vivo
Procedure: (§1) C3H/HeN mice (Charles River Japan (Kanagawa, Japan)) of 6 weeks old, the hair cycle of which repeatedly proceeds anagen phase, catagen phase and telogen phase in this order, were raised for a week for acclimatization. At the age of 7 weeks (the telogen phase is started at the age), hairs on the back were shaved off by an electric clipper and a shaver. After the mice were raised overnight, application of a test solution (200 μL per site) to the hair-shaved site was initiated.
(§2) In both of Test 1 and Test 2, each test solution was applied to the hair-shaved back sites of 5-12 mice per group, daily at a frequency of once a day. […] Alternatively, where needed, the hair growth effects were evaluated by calculating % hair-growth areas.
(§3) The evaluation results of Test 1 and Test 2 are shown in Table 1 and Table 2, respectively. Evaluation results were shown by scores based on the following criteria: when the hair-growth area calculated was 0% or more and less than 10%, score 1 was given; when the hair-growth area calculated was 10% or more and less than 25%, score 2 was given, when the hair-growth area calculated was 25% or more and less than 50%, score 3 was given; when the hair-growth area calculated was 50% or more and less than 75%, score 4 was given; and when the hair-growth area calculated was 75% or more, score 5 was given.

[2] = system: hair-shaved back sites of C3H/HeN mice; assay: Telogen phase model, Test 2: hair growth at hair-shaved back sites; format: in vivo
Procedure: as §1, §2, §3

[3] = Procedure: (§4) Each test drug was applied to hair-shaved back sites (in an amount of 200 μL per site) of 5-6 animals per group, daily at a frequency of once a day. At 10 minutes and 30 minutes after the application on Day 20, average body surface temperature (° C.) was measured. […] Body surface temperature (° C.) was measured by photographing a hair-shaved site and its periphery using an infrared thermography camera (Thermoshot F30S (NEC/Avio, Tokyo, Japan)). The average body surface temperature per area was calculated using InfRec Analyzer NS9500 Standard (NEC/Avio, Tokyo, Japan).
These animals were subjected to drawing blood from the hearts on the final week for biochemical examination. Each blood was allowed to stand still on ice for 30 minutes and centrifuged twice at 10,000 rpm for 15 minutes (at 4° C.). The supernatants (i.e., sera) were transferred to new containers and stored in a freezer (at −80° C.). The sera were analyzed using a clinical chemistry analyzer for animal (FUJI DRI-CHEM 3500V) and special slides to obtain the values of [GPT (glutamate-pyruvate transaminase), GOT (glutamate oxaloacetate transaminase), GGT (γ-glutamyl transferase), LDH (lactate dehydrogenase), CHE (cholinesterase), CPK (creatine phosphokinase), ALB (albumin), TP (total protein), TCHO (total cholesterol), and TG (triglyceride)].

mouse skin tissue [4] = assay: Histological examination of skin tissue, anagen phase model (Example 4); format: in vivo, C3H/HeN mice; details: Positive control 5% MXD; after 24 days application; n = 8
Procedure: Paraffin sections were prepared, stained with hematoxylin/eosin (HE), and microscopically observed. Hair root density and anagen phase/telogen phase ratio were evaluated.

mouse skin tissue [5] = details: positive control, 5% MXD
Procedure: Specifically, the skin tissue was taken and fixed in 10% neutral buffered formalin. Paraffin sections thereof were prepared, stained with HE, and microscopically observed.

[6] = Average body surface temperature by infrared thermography (Example 2); details: Sodium thiosulfate 10% (w/v)
Procedure: as §4

[7] = Minoxidil 1% (w/v), Day 54 after initiation of application
[8] = Minoxidil 1%, serum, final week, N=5
[9] = Sodium thiosulfate 10% (w/v), Day 69 after initiation of application
[10] = Sodium thiosulfate 10%, serum, final week, N=5

Nc1cc(N2CCCCC2)nc(N)[n+]1[O-] [Minoxidil, minoxidil, reference compound]
hair growth score ([1]; Minoxidil 1% (w/v), Day 26 after initiation of application): 0
hair growth score ([1]; Minoxidil 1% (w/v), Day 32 after initiation of application): 0
hair growth score ([1]; Minoxidil 1% (w/v), Day 40 after initiation of application): 0
hair growth score ([1]; Minoxidil 1% (w/v), Day 47 after initiation of application): 0
hair growth score [1, 7]: 0
hair growth score ([1]; Minoxidil 1% (w/v), Day 62 after initiation of application): 0
hair growth score ([1]; Minoxidil 1% (w/v), Day 69 after initiation of application): 0
hair growth score ([1]; Minoxidil 1% (w/v), Day 76 after initiation of application): 0
hair growth score ([1]; Minoxidil 1% (w/v), Day 83 after initiation of application): 0
hair growth score ([1]; Minoxidil 1% (w/v), Day 90 after initiation of application): 0
hair growth score ([2]; Minoxidil 1% (w/v), Day 27 after initiation of application): 0
hair growth score ([2]; Minoxidil 1% (w/v), Day 34 after initiation of application): 0
hair growth score ([2]; Minoxidil 1% (w/v), Day 41 after initiation of application): 0
hair growth score ([2]; Minoxidil 1% (w/v), Day 48 after initiation of application): 0
hair growth score [2, 7]: 0
hair growth score ([2]; Minoxidil 1% (w/v), Day 61 after initiation of application): 0
CHE [3, 8]: 16.6 ± 1.5 U/l
TG [3, 8]: 294.0 ± 44.1 mg/dL
TP [3, 8]: 4.7 ± 0.5 g/dL
ALB ([3]; mouse, in vivo): 2.2 ± 0.1 g/dL
CPK ([3]; mouse, in vivo): 321.6 ± 231.5 U/l
GGT ([3]; mouse, in vivo): 1.0 ± 0.0 U/l
GOT (AST) ([3]; mouse, in vivo): 66.8 ± 40.2 U/l
LDH ([3]; mouse, in vivo): 237.8 ± 101.6 U/l
TCHO ([3]; mouse, in vivo): 167.2 ± 19.3 mg/dL
Anagen phase/telogen phase (mouse skin tissue [4]): 0.11 ± 0.05
Hair root density (mouse skin tissue [4]): 2.04 ± 0.32 /mm
Subcutaneous tissue (mouse skin tissue [4]): 38.4 ± 9 µm
tissue abnormality (HE-stained skin sections) (mouse skin tissue [5]): no individuals having tissue abnormality were found

O=S([O-])([O-])=S.[Na+].[Na+] [Sodium thiosulfate, sodium thiosulfate]
hair growth score ([1]; Sodium thiosulfate 1% (w/v), Day 26 after initiation of application): 0
hair growth score ([1]; Sodium thiosulfate 1% (w/v), Day 32 after initiation of application): 0
hair growth score ([1]; Sodium thiosulfate 1% (w/v), Day 40 after initiation of application): 0
hair growth score ([1]; Sodium thiosulfate 1% (w/v), Day 47 after initiation of application): 0
hair growth score ([1]; Sodium thiosulfate 1% (w/v), Day 54 after initiation of application): 0
hair growth score ([1]; Sodium thiosulfate 1% (w/v), Day 62 after initiation of application): 0
hair growth score ([1]; Sodium thiosulfate 1% (w/v), Day 69 after initiation of application): 0
hair growth score ([1]; Sodium thiosulfate 1% (w/v), Day 76 after initiation of application): 0
hair growth score ([1]; Sodium thiosulfate 1% (w/v), Day 83 after initiation of application): 0
hair growth score ([1]; Sodium thiosulfate 1% (w/v), Day 90 after initiation of application): 0
hair growth score ([1]; Sodium thiosulfate 2% (w/v), Day 26 after initiation of application): 0
hair growth score ([1]; Sodium thiosulfate 2% (w/v), Day 32 after initiation of application): 0
hair growth score ([1]; Sodium thiosulfate 2% (w/v), Day 40 after initiation of application): 0
hair growth score ([1]; Sodium thiosulfate 2% (w/v), Day 47 after initiation of application): 0
hair growth score ([1]; Sodium thiosulfate 2% (w/v), Day 54 after initiation of application): 0
hair growth score ([1]; Sodium thiosulfate 2% (w/v), Day 62 after initiation of application): 0
hair growth score ([1]; Sodium thiosulfate 2% (w/v), Day 69 after initiation of application): 0
hair growth score ([1]; Sodium thiosulfate 2% (w/v), Day 76 after initiation of application): 0
hair growth score ([1]; Sodium thiosulfate 2% (w/v), Day 83 after initiation of application): 0
hair growth score ([1]; Sodium thiosulfate 2% (w/v), Day 90 after initiation of application): 0
hair growth score ([1]; Sodium thiosulfate 2% (w/v), Day 97 after initiation of application): 0
hair growth score ([1]; Sodium thiosulfate 4% (w/v), Day 26 after initiation of application): 0
hair growth score ([1]; Sodium thiosulfate 4% (w/v), Day 32 after initiation of application): 0
hair growth score ([1]; Sodium thiosulfate 4% (w/v), Day 40 after initiation of application): 0
hair growth score ([1]; Sodium thiosulfate 4% (w/v), Day 47 after initiation of application): 0
hair growth score ([1]; Sodium thiosulfate 4% (w/v), Day 54 after initiation of application): 0
hair growth score ([1]; Sodium thiosulfate 10% (w/v), Day 26 after initiation of application): 0
hair growth score ([1]; Sodium thiosulfate 10% (w/v), Day 32 after initiation of application): 0
hair growth score ([1]; Sodium thiosulfate 10% (w/v), Day 40 after initiation of application): 0
hair growth score [1, 9]: 2 (when the hair-growth area calculated was 10% or more and less than 25%, score 2 was given) and 3 (when the hair-growth area calculated was 25% or more and less than 50%, score 3 was given)
time point when hairs start growing (Kaplan-Meier curves) ([1]; as the concentration of sodium thiosulfate increases, Tests 1 and 2, FIGS. 2 and 3): new hairs tend to start growing from the earlier stage
start of new hair growth and hair-growth area compared to the negative control ([1]; sodium thiosulfate alone, 4% (w/v) or more): started growing at early stage after the application
hair growth score ([2]; Sodium thiosulfate 10% (w/v), Day 27 after initiation of application): 0
hair growth score ([2]; Sodium thiosulfate 10% (w/v), Day 34 after initiation of application): 0
hair growth score [2, 9]: 2 (when the hair-growth area calculated was 10% or more and less than 25%, score 2 was given) and 4 (when the hair-growth area calculated was 50% or more and less than 75%, score 4 was given) and 3 (when the hair-growth area calculated was 25% or more and less than 50%, score 3 was given)
hair growth score ([2]; Sodium thiosulfate 10% (w/v), Day 90 after initiation of application): 3 (when the hair-growth area calculated was 25% or more and less than 50%, score 3 was given) and 5 (when the hair-growth area calculated was 75% or more, score 5 was given) and 4 (when the hair-growth area calculated was 50% or more and less than 75%, score 4 was given)
average body surface temperature ([6]; 10 minutes after the application on Day 20): 36.6 °C and 36.3 °C and 35.8 °C and 35.5 °C and 36.7 °C
average body surface temperature ([6]; 30 minutes after the application on Day 20): 37.1 °C and 36.6 °C and 37 °C and 37.2 °C
ALB [3, 10]: 2.2 ± 0.1 g/dL
CHE [3, 10]: 19.8 ± 3.1 U/l
CPK [3, 10]: 608.4 ± 642.5 U/l
GGT [3, 10]: 1.0 ± 0.0 U/l
GOT (AST) [3, 10]: 83.2 ± 46.3 U/l
GPT (ALT) [3, 10]: 20.8 ± 2.3 U/l
LDH [3, 10]: 277.4 ± 142.6 U/l
TCHO [3, 10]: 155.0 ± 10.1 mg/dL
TG [3, 10]: 296.8 ± 95.5 mg/dL
TP [3, 10]: 4.8 ± 0.3 g/dL
